These results are taken from ChEMBL document CHEMBL1155471, “Discovery of potent, balanced and orally active dual NK1/NK3 receptor ligands” (Bioorg Med Chem Lett, 2010).

One assay concerns the target Substance-P receptor (Homo sapiens, UniProt P25103). The assay is described as follows: Displacement of [3H]substance P from human NK1 receptor expressed in CHO cells. The assay is classed as cell-based.
A further assay addresses T1, Neuromedin-K receptor (Homo sapiens, UniProt P29371).
T1 sequence (P29371 whole entry): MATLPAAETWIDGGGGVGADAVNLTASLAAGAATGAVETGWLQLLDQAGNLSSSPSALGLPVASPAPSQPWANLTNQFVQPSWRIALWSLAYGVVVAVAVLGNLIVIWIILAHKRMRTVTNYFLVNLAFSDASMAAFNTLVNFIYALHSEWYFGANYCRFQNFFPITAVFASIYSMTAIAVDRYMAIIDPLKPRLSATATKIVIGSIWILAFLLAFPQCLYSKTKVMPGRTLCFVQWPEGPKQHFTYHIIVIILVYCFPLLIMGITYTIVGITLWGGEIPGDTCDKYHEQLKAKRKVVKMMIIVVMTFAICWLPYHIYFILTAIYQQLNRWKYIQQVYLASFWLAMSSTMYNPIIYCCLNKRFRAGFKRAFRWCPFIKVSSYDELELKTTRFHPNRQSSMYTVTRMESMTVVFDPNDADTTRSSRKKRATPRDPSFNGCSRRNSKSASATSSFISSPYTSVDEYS
The assay is described as follows: Displacement of [3H]SR142801 from human NK3 receptor expressed in HEK293-EBNA cells. Format: cell-based. Background: Displacement assays read how much labelled ligand stays bound in the presence of the test substance.

Assay [1] deals with Meriones unguiculatus. The assay is described as follows: Inhibition of GR-73632-induced foot tapping behavior in Mongolian gerbil at 10 mg/kg, po administered 2 hrs before GR-73632 challenge. Format: functional.
Assay [2] deals with Meriones unguiculatus. The assay is described as follows: Inhibition of GR-73632-induced foot tapping behavior in po dosed Mongolian gerbil administered 2 hrs before GR-73632 challenge. The assay is classed as functional. The conditions noted are these: read-out: ID50 (the source's name).

Chain of Substance-P receptor (P25103 whole entry): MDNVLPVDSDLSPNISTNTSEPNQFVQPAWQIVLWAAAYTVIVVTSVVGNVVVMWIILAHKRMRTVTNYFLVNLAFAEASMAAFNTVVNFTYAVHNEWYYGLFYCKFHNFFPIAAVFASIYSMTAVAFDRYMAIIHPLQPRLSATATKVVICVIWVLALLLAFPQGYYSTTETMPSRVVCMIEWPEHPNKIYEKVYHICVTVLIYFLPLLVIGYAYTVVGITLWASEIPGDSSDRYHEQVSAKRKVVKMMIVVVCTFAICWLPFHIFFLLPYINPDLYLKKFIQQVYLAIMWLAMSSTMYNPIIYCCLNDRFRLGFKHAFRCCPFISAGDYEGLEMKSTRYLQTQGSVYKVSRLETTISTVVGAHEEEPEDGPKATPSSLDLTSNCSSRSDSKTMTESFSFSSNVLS

As usually defined, the Ki is a measure of affinity in units of concentration, obtained from inhibition or displacement. Higher therefore signals a looser hold on the target. As to `CN(CCO)c1cc(-c2ccccc2Cl)c(N(C)C(=O)C(C)(C)c2cc(C(F)(F)F)cc(C(F)(F)F)c2)cn1`, the Ki was found to be 0.78 nM on Substance-P receptor and 2.91 nM on Neuromedin-K receptor.
Usually inhibition in vivo stands for the change of the read-out against control, counted positive when it falls. Take `CCN(CCO)c1cc(-c2ccccc2Cl)c(N(C)C(=O)C(C)(C)c2cc(C(F)(F)F)cc(C(F)(F)F)c2)cn1`: the Ki at Substance-P receptor is 3.37 nM; on Neuromedin-K receptor it was 12.2 nM. In the assay with Meriones unguiculatus [1], the inhibition in vivo at 10 mg/kg amounted to 100%.
In the case of `CN(C(=O)C(C)(C)c1cc(C(F)(F)F)cc(C(F)(F)F)c1)c1cnc(N(CCO)CCO)cc1-c1ccccc1Cl`, the results for the Ki at Substance-P receptor and on Neuromedin-K receptor were 1.15 nM and 0.91 nM, respectively.
Taken in the same sequence, the figures for `CN(C(=O)C(C)(C)c1cc(C(F)(F)F)cc(C(F)(F)F)c1)c1cnc(N2CCCC(O)C2)cc1-c1ccccc1Cl` (configuration not stated) were 1.72 nM and 15.1 nM.
Taken in the same sequence, the figures for `CN(C(=O)C(C)(C)c1cc(C(F)(F)F)cc(C(F)(F)F)c1)c1cnc(N2CCC[C@@H]2CO)cc1-c1ccccc1Cl` were 1.58 nM and 7.27 nM.
On to `CN(C(=O)C(C)(C)c1cc(C(F)(F)F)cc(C(F)(F)F)c1)c1cnc(N(CCO)CCCO)cc1-c1ccccc1Cl`, for which the Ki on Substance-P receptor was found to be 1.38 nM; on Neuromedin-K receptor it was 0.95 nM.
With `CN(C(=O)C(C)(C)c1cc(C(F)(F)F)cc(C(F)(F)F)c1)c1cnc(N2CCCC[C@H]2CO)cc1-c1ccccc1Cl`, the Ki at Substance-P receptor is 11.1 nM; at Neuromedin-K receptor, 7.72 nM.
On to `CN(C(=O)C(C)(C)c1cc(C(F)(F)F)cc(C(F)(F)F)c1)c1cnc(N2CCCC[C@@H]2CO)cc1-c1ccccc1Cl`, for which the results for the Ki at Substance-P receptor and on Neuromedin-K receptor were 2.27 nM and 29.7 nM, respectively.
For the molecule `CN(C(=O)C(C)(C)c1cc(C(F)(F)F)cc(C(F)(F)F)c1)c1cnc(N2C[C@@H](O)C[C@H]2CO)cc1-c1ccccc1Cl`, the ED50 with Meriones unguiculatus [2] was found to be 1.3 mg/kg.
Turning to `CN(C(=O)C(C)(C)c1cc(C(F)(F)F)cc(C(F)(F)F)c1)c1cnc(N2C[C@H](O)C[C@H]2CO)cc1-c1ccccc1Cl`, the Ki on Neuromedin-K receptor stood at 1.12 nM. Further, in the assay with Meriones unguiculatus [2], the ED50 is 1.1 mg/kg.
On to `COC[C@@H]1C[C@@H](OC)CN1c1cc(-c2ccccc2Cl)c(N(C)C(=O)C(C)(C)c2cc(C(F)(F)F)cc(C(F)(F)F)c2)cn1`, for which the values for the inhibition constant Ki at Substance-P receptor and at Neuromedin-K receptor were 0.91 nM and 29.8 nM, respectively.
On the same counts, the results for `CN(C(=O)C(C)(C)c1cc(C(F)(F)F)cc(C(F)(F)F)c1)c1cnc(N2CC[C@H](O)[C@H]2CO)cc1-c1ccccc1Cl` are 1.58 nM and 0.91 nM.
On the same counts, the results for `CN(C(=O)C(C)(C)c1cc(C(F)(F)F)cc(C(F)(F)F)c1)c1cnc(N2CC[C@H](O)C2)cc1-c1ccccc1Cl` are 0.86 nM and 8.38 nM.
On the same counts, the results for `CN(C(=O)C(C)(C)c1cc(C(F)(F)F)cc(C(F)(F)F)c1)c1cnc(N2CCC[C@H]2CO)cc1-c1ccccc1Cl` are 1 nM and 0.74 nM.
Take `CCCN(CCO)c1cc(-c2ccccc2Cl)c(N(C)C(=O)C(C)(C)c2cc(C(F)(F)F)cc(C(F)(F)F)c2)cn1`: the results for the Ki on Substance-P receptor and on Neuromedin-K receptor were 2.24 nM and 5.4 nM, respectively. Also, at 10 mg/kg the inhibition in vivo in the assay on Meriones unguiculatus [1] was 100%.
As for `CN(C(=O)C(C)(C)c1cc(C(F)(F)F)cc(C(F)(F)F)c1)c1cnc(N2CC[C@@H](O)C2)cc1-c1ccccc1Cl`, the values for the Ki at Substance-P receptor and at Neuromedin-K receptor were 2.62 nM and 6.87 nM, respectively.
In turn, `CN(C(=O)C(C)(C)c1cc(C(F)(F)F)cc(C(F)(F)F)c1)c1cnc(NCCO)cc1-c1ccccc1Cl` showed a Ki on Substance-P receptor of 1.12 nM. The ED50 in the assay on Meriones unguiculatus [2] turned out to be 1 mg/kg.
On to `COCCNc1cc(-c2ccccc2Cl)c(N(C)C(=O)C(C)(C)c2cc(C(F)(F)F)cc(C(F)(F)F)c2)cn1`, for which the Ki on Substance-P receptor is 3.05 nM; on Neuromedin-K receptor it was 93.3 nM.
